One assay concerns the target Caspase-8 (Homo sapiens, UniProt Q14790). Briefly: Inhibition of human recombinant caspase 8.
The next assay concerns the target T1, Caspase-1 (Homo sapiens, UniProt P29466).
T1 sequence (P29466 whole entry): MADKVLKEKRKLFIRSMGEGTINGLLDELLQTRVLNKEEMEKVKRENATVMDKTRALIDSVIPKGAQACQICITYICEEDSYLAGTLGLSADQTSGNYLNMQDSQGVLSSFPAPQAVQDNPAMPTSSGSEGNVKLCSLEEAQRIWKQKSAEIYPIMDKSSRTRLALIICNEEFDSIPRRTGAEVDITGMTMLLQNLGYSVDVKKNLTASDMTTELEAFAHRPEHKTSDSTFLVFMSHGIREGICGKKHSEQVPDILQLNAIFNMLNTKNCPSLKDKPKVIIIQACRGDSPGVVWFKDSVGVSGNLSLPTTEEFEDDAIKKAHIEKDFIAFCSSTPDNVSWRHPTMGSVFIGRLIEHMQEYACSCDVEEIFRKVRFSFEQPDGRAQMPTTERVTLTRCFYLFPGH
The assay is described as follows: Inhibition of human recombinant caspase 1.

A further assay has as its target T2, Caspase-7 (Homo sapiens, UniProt P55210).
T2 sequence (P55210 whole entry): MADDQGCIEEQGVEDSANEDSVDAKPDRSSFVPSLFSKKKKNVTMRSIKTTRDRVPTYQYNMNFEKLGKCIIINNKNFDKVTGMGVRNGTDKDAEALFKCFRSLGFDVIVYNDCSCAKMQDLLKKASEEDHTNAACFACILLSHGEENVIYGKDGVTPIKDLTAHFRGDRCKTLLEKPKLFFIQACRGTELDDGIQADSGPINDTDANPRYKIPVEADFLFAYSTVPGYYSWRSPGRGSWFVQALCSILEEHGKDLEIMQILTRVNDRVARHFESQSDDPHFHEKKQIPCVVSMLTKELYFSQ
Briefly: Inhibition of human recombinant caspase 7.

The target of assay [1] is T3, Caspase-3 (Homo sapiens, UniProt P42574).
T3 sequence (P42574 whole entry): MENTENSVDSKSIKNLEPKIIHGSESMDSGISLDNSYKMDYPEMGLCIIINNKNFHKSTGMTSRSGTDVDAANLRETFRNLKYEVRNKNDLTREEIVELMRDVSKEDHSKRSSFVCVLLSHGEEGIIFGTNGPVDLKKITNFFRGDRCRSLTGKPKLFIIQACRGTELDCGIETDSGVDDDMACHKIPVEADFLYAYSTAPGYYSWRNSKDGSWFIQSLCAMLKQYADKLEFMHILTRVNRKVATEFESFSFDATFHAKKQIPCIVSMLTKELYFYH
Briefly: Inhibition of human recombinant caspase 3.

In assay [2] the target is T3, Caspase-3. Briefly: Inhibition of human recombinant caspase 3 in NT2 by whole cell assay.

Molecules are shown by their SMILES. Some results are limits rather than exact numbers.

Chain of Caspase-8 (Q14790 217-374 limits assumed): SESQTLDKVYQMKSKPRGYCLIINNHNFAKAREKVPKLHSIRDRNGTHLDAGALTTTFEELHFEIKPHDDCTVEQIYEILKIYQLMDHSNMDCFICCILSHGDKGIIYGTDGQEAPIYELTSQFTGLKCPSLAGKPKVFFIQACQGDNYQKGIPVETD
Chain of Caspase-8 (Q14790 385-479 limits assumed): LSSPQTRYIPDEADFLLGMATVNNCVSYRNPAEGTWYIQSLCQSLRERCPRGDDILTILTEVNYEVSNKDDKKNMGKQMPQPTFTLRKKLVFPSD

As to `CCC(C(=O)N[C@@H](CC(=O)O)C(=O)CCCc1ccccc1)n1cc(C(C)(C)C)nc(NCc2cc(OC)cc(OC)c2)c1=O` (stereo partly specified), the IC50 at Caspase-8 worked out at 3050 nM; at Caspase-1 it was 320 nM; on Caspase-7, 800 nM; at Caspase-3 [1], 160 nM.
With `CCC(C(=O)N[C@@H](CC(=O)O)C(=O)CCCc1ccccc1)n1cc(C(C)(C)C)nc(Nc2ccc3c(c2)OCCO3)c1=O` (stereo partly specified), the IC50 at Caspase-8 was found to be 1000 nM; at Caspase-1, 330 nM; on Caspase-7 it was 280 nM; on Caspase-3 [1], 28 nM.
Consider `CCCCCCN(C)CC(=O)[C@H](CC(=O)O)NC(=O)C(CC)n1cc(C(C)(C)C)nc(Nc2nnn[nH]2)c1=O` (stereo partly specified), for which the IC50 turned out to be 6070 nM on Caspase-3 [2]; 163 nM at Caspase-8; 3.4 nM at Caspase-1; 64.7 nM on Caspase-7; 6.6 nM on Caspase-3 [1].
The matching figures for `CCC(C(=O)N[C@@H](CC(=O)O)C(=O)CCCc1ccccc1)n1cc(C(C)(C)C)nc(Nc2nnn[nH]2)c1=O` (stereo partly specified): 19400 nM, 14 nM, 9 nM, 8 nM and 5 nM.
For `CCC(C(=O)N[C@@H](CC(=O)O)C(=O)CCCc1ccccc1)n1cc(C(C)(C)C)nc(NCCc2cccs2)c1=O` (stereo partly specified), the 50% inhibitory concentration (IC50) came out at 300 nM at Caspase-8, 2310 nM at Caspase-1, 920 nM at Caspase-7 and 50 nM on Caspase-3 [1].
The matching figures for `CCC(C(=O)N[C@@H](CC(=O)O)C(=O)CCCc1ccccc1)n1cc(C(C)(C)C)nc(NC(CC(C)C)C(=O)O)c1=O` (stereo partly specified): above 10000 nM, 5490 nM, 3490 nM and 100 nM.
